Measured values published in doi:10.1101/2023.08.20.554024v1, “Structural framework for the understanding spectroscopic and functional signatures of the cyanobacterial Orange Carotenoid Protein families” (biorxiv, 2023).

Columns and labels:
CrinOCP2 = target: T1, CrinOCP2 (Crinalium epipsammum, UniProt K9VSN3, E26A); assay: X-ray crystal structure, […] A; assay type: binding; conditions: bound in E. coli making echinenone; crystals pH 6.5; carotenoid site between NTD and CTD, keto group at Tyr201/Trp288
T1 construct: gene Cri9333_0045; full length from E. coli C41(DE3), codon-optimized, pET28a+, His-tag cut by thrombin leaving N-terminal GSH; monomer
T1 sequence (K9VSN3 1-319 E26A): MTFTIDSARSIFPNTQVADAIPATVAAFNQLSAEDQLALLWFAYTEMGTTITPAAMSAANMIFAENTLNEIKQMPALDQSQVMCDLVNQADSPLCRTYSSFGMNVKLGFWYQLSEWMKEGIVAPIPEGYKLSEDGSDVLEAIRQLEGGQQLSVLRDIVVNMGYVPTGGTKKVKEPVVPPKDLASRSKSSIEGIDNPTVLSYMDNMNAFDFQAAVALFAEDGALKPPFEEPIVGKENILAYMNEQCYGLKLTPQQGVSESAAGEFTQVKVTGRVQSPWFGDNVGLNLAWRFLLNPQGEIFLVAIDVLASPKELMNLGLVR

SynOCP1 = target: T2, SynOCP1 (Synechocystis sp. PCC 6803, UniProt P74102); assay: absorbance spectrum and photocycle of the holoprotein; assay type: binding; conditions: bound in E. coli making echinenone; pH 7.6, 150 mM NaCl
T2 construct: gene slr1963; full length from E. coli, tag removed, from earlier work; monomer in solution
T2 sequence (P74102 2-317): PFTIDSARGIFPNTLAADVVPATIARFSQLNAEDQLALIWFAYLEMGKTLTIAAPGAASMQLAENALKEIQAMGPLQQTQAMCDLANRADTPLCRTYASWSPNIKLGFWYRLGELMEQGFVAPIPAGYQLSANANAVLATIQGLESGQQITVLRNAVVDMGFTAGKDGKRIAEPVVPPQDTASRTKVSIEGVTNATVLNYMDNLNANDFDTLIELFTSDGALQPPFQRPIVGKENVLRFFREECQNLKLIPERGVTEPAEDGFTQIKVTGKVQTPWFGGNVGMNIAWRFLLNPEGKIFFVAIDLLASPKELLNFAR

With CC1=C(/C=C/C(C)=C/C=C/C(C)=C/C=C/C=C(C)/C=C/C=C(C)/C=C/C2=C(C)C(=O)CCC2(C)C)C(C)(C)CCC1 [ECH, echinenone] the “X-ray crystal structure, 2.2 A” value (CrinOCP2) was “HPLC analysis indicated that both OCP2 variants contained ECH as the predominant carotenoid” and the “absorbance spectrum and photocycle of the holoprotein” value (SynOCP1) was “All proteins were ECH-bound”.
